From patent US20110082204A1, “N-alkylcarbonyl-amino acid ester and N-alkylcarbonyl-amino lactone compounds and their use” (priority 2006, published 2011)

What was measured:
[1] = system: dorsal surface of the tongue; settings: threshold amount producing cooling on tongue of human volunteers; values from Watson US 04178459; cited from earlier work
[2] = Log P of tested compounds; type: physicochemical
periorbital skin = test: Ointment applied to periorbital skin: coolness, eye irritancy, alerting (Study 3); type: in vivo, human; settings: ointment on periorbital area; for skin coolness and refreshment: conditions similar to Study 3
Excerpt: The ointment was also applied to the periorbital skin (upper and lower eyelids and on skin adjacent to the lateral canthus) for tests of irritancy near the eyes, and the subject is asked if irritation is present or absent. The intensity of the eye sensation is not rated.
For tests of irritancy near the eyes in Study 3 and 4, the ointment was applied to the periorbital skin (upper and lower eyelids and on skin adjacent to the lateral canthus), and the subject asked if irritation is present or absent. The intensity of the eye sensation is not rated, but just noted as being present or absent
A 1% preparation of 2-isopropyl-5-methyl-cyclohexanecarbonyl D-alanine methyl ester in Aquaphor® ointment was applied bilaterally to the periorbital area of four individuals. […] This experiment was then repeated three days later in the evening with the same individuals whose occupations required daylong activities before a computer screen.

philtrum skin = test: Cooling sensation after ointment applied to philtrum skin; type: in vivo, human; settings: for duration of cooling (FIG. 1): 40 to 70 mg of 1% wt/vol (10 mg/ml) ointment on skin above the upper lips; for duration of action / onset on philtrum skin: Study 1; for Duration of cooling, Philtrum Skin: 5 mg/ml in Aquaphor ointment on philtrum skin
Excerpt: A reliable place for topical application is the skin above the upper lip (above the vermilion border of the lips), on the philtrum, lateral to the philtrum until the nasolabial folds, and on the lower nostrils (subnasale). This part of the face is known to be densely innervated with cold receptors, second only to the surfaces of the eyeball and anogenitalia.
The intensity of the subjective skin sensation is rated as 0, 1, 2 or 3 with: 0 as no change; 1 as slight coolness, cold, or tingling; 2 as clear-cut signal of coolness, cold, or tingling; and 3 as robust cooling or cold. The intervals for recording sensations are 5 to 10 minutes, until two successive zeroes are obtained. The results (shown in FIG. 1) are averaged values of 4 to 6 separate trials in the same individual. The data are plotted using SigmaPlot® (Systat Software, Point Richmond Calif.) and a smoothing function with a negative exponential was used for analysis and statistical fit of the results. Confirmatory trials of cooling action of the long-acting NACE compounds were obtained in 2 to 4 individuals but not quantified for some because of the large number of chemicals that were evaluated
(§1) The onset of drug action is taken as the time to reach 2 units of coolness intensity, and offset of drug action is the time when coolness intensity drops below 2, after previously surpassing 2 units. The duration of cooling action is defined as the offset time minus the onset time. […] The quality of the sensation is noted, for example, as pure refreshing coolness, or if the sensation is accompanied by irritation (stinging or burning). The quality of the sensation is not rated for intensity.
For bioassay on the skin, approximately 30 mg was stirred and dissolved in 3 g of warm liquid Aquaphor® ointment to a yield 5 to 10 mg/ml (0.5% to 1.0 wt/vol) ointment. After cooling, 40 to 70 mg of the solid ointment was placed on the tip of a plastic stick and applied to the skin above the upper lip, on the philtrum, and lateral to the philtrum, up to the nasolabial folds, of test subjects and the onset and duration of cooling sensations noted.
The intensity of the subjective skin sensation was rated as 0, 1, 2 or 3 with: 0 as no change; 1 as slight coolness, cold, or tingling; 2 as clear signal of coolness, cold, or tingling; and 3 as robust cooling or cold. The intervals for recording sensations were 5 to 10 minutes, until two successive zeroes were obtained. The results (shown in FIG. 1) are averaged values of 4 to 6 separate trials in the same individual. The data are plotted using SigmaPlot® (Systat Software, Point Richmond, Calif., USA) and a smoothing function with a negative exponential was used for analysis and statistical fit of the results.
as §1, with “was” for “is”, “was also noted: such” for “is noted, for example,”
For the results in FIG. 1, the test compounds were singly applied to the skin above the upper lips at a 40 to 70 mg dose of a 1% wt/vol (10 mg/ml) ointment. Subsequently, for the results shown in Table 3, the test dose on the philtrum was reduced to a 0.5% wt/vol (5 mg/ml) ointment. The reason for choosing a lower dose was to increase the number of trials per individual and to have a reduced chance of substances accumulating in the skin.

eyelids/ocular surface = test: Cooling after wiping closed eyelids with a towelette; type: in vivo, human; settings: eye wipes, 1 mg/ml in 5%-95% v/v ethanol-distilled water
Experimental: A second method of testing was to take a towelette saturated with a test solution of the cooling agent and to wipe the towelette over the dosed eyelids. The presence or absence of cooling (or irritanty, if applicable) sensations was then recorded at 10 minute intervals until the cessation of coolness in two successive intervals.
For testing of cooling compounds delivered to the eyelids with a towelette, the following procedures were used in the experiments of Table 3 and in Study 5 and 6. Three ml of liquid suspension or solution in distilled water was added to a 0.4 g cotton rectangle (50 mm×60 mm) (CS-being, Daisan Cotton, Japan) and individually sealed with a vaccuum apparatus (Foodsaver®, Jarden Corp.). Samples were stored in the freezer or refrigerator and thawed to room temperature before use. Wiping with the cotton pad delivers 40 to 45 μl of liquid composition to the eyelids ([…] to 22 μl per eye). So, if the concentration of the test substance was 1 mg/ml, the dose delivered to both eyes is a total of ˜40 to […], or ˜20 μg per eye. This method allows a reliable delivery of test substances because the dissolved or suspended particles in solution are evenly dispersed on the cotton pad in an excess volume of liquid. The presence or absence of cooling sensations was noted as being present or absent at 5 to 10 min intervals until no coolness was noticeable in two successive test intervals. Only the duration of cooling on the ocular surface was recorded, without an attempt to quantify the intensity of the sensation.

SMILES	Threshold tongue [1]	Log P [2]	further results
CC(C)[C@@H]1CC[C@@H](C)C[C@H]1C(=O)NC(C)(C)C [WS-14]	0.4 µg	4.5	irritation of skin / eye surfaces (periorbital skin): produced significant skin and eye irritation; skin coolness and refreshment (periorbital skin): did not enhance skin coolness or provide satisfactory refreshment
COC(=O)CCC(NC(=O)C1CC(C)CCC1C(C)C)C(=O)OC (centres unmarked) [Glu(OMe) Me Ester]	–	2.2	–
CCNC(=O)C1CC(C)CCC1C(C)C (centres unmarked) [WS-3, reference compound]	0.2 µg	3.7	duration of cooling (FIG. 1) (philtrum skin): 0.3 h; duration of action / onset on philtrum skin (philtrum skin): short duration of action (less than 1 hour) on the philtrum skin or slow onset (more than 5 minutes); irritation of skin / eye surfaces (periorbital skin): produced significant skin and eye irritation; skin coolness and refreshment (periorbital skin): did not enhance skin coolness or provide satisfactory refreshment
COC(=O)[C@H](NC(=O)[C@@H]1C[C@H](C)CC[C@H]1C(C)C)C(C)C [D-Val Me Ester]	–	4.2	–
CCCOC(=O)CNC(=O)[C@@H]1C[C@H](C)CC[C@H]1C(C)C [Gly nPr Ester]	0.3 µg	3.4	Duration of cooling, Philtrum Skin (philtrum skin): 42 min; Duration of cooling, Eyelids/Ocular Surface (eyelids/ocular surface): 54 min
CCCOC(=O)[C@@H](C)NC(=O)[C@@H]1C[C@H](C)CC[C@H]1C(C)C [D-Ala nPr Ester]	–	3.8	Duration of cooling, Philtrum Skin (philtrum skin): 108 min; Duration of cooling, Eyelids/Ocular Surface (eyelids/ocular surface): 65 min
COC(=O)[C@H](C)NC(=O)[C@@H]1C[C@H](C)CC[C@H]1C(C)C [L-Ala Me Ester]	0.6 µg	2.8	–
CNC(=O)C(C)(C(C)C)C(C)C [WS-23, N-2,3-trimethyl-2-isopropylbutanamide]	–	–	duration of action / onset on philtrum skin (philtrum skin): short duration of action (less than 1 hour) on the philtrum skin or slow onset (more than 5 minutes); irritation of skin / eye surfaces (periorbital skin): produced significant skin and eye irritation; skin coolness and refreshment (periorbital skin): did not enhance skin coolness or provide satisfactory refreshment
COC(=O)[C@@H](NC(=O)[C@@H]1C[C@H](C)CC[C@H]1C(C)C)C(C)C [L-Val Me Ester]	–	4.2	–
CCOC(=O)CN(C)C(=O)[C@@H]1C[C@H](C)CC[C@H]1C(C)C [Sar Et Ester]	0.8 µg	2.9	–
CCOC(=O)CCNC(=O)[C@@H]1C[C@H](C)CC[C@H]1C(C)C [β-Ala Et Ester]	1.5 µg	3.1	–
CC1CCC(C(C)C)C(C(=O)NC2CCOC2=O)C1 (mixture of isomers) [racemic Hsl]	–	2.5	–
CCOC(=O)[C@H](CO)NC(=O)[C@@H]1C[C@H](C)CC[C@H]1C(C)C [L-Ser Et Ester]	–	1.8	–
CCOC(=O)C(C)N(C)C(=O)C1CC(C)CCC1C(C)C [N—Me-D-Ala Et Ester]	–	3.2	–
COC(=O)[C@H](CC(C)C)NC(=O)[C@@H]1C[C@H](C)CC[C@H]1C(C)C [L-Leu Me Ester]	–	4.3	–
CCOC(=O)[C@H](C)NC(=O)[C@@H]1C[C@H](C)CC[C@H]1C(C)C [L-Ala Et Ester]	0.4 µg	3.1	Duration of cooling, Philtrum Skin (philtrum skin): 34 min; Duration of cooling, Eyelids/Ocular Surface (eyelids/ocular surface): 0 min
CCCCOC(=O)CNC(=O)[C@@H]1C[C@H](C)CC[C@H]1C(C)C [Gly nBu Ester]	–	4.0	Duration of cooling, Philtrum Skin (philtrum skin): 38 min; Duration of cooling, Eyelids/Ocular Surface (eyelids/ocular surface): 35 min
CC(C)[C@@H]1CC[C@@H](C)C[C@H]1C(=O)N[C@@H](CCCCNC(=O)OCc1ccccc1)C(=O)OC(C)(C)C [L-Lys(Z) t-Bu Ester]	–	5.9	–
CCOC(=O)CNC(=O)[C@@H]1C[C@H](C)CC[C@H]1C(C)C [Gly Et Ester (WS-5), reference compound]	0.2 µg	2.9	Duration of cooling, Philtrum Skin (philtrum skin): 24 min; duration of cooling (FIG. 1) (philtrum skin): 0.5 h; duration of action / onset on philtrum skin (philtrum skin): short duration of action (less than 1 hour) on the philtrum skin or slow onset (more than 5 minutes); Duration of cooling, Eyelids/Ocular Surface (eyelids/ocular surface): 15 min
CCCCOC(=O)[C@@H](C)NC(=O)[C@@H]1C[C@H](C)CC[C@H]1C(C)C [D-Ala nBu Ester]	–	4.4	Duration of cooling, Philtrum Skin (philtrum skin): 80 min; Duration of cooling, Eyelids/Ocular Surface (eyelids/ocular surface): 40 min
COC(=O)CNC(=O)C1CC(C)CCC1C(C)C (centres unmarked) [Gly Me Ester (WS-31), reference compound]	0.6 µg	2.4	duration of action / onset on philtrum skin (philtrum skin): short duration of action (less than 1 hour) on the philtrum skin or slow onset (more than 5 minutes)
COC(=O)[C@@H]1CCCN1C(=O)[C@@H]1C[C@H](C)CC[C@H]1C(C)C [L-Pro Me Ester]	–	3.3	–
CC(C)[C@@H]1CC[C@@H](C)C[C@H]1C(=O)N[C@H]1CCOC1=O [L-Hsl]	–	2.5	–
COc1ccc(NC(=O)[C@@H]2C[C@H](C)CC[C@H]2C(C)C)cc1 [WS-12, reference compound]	0.2 µg	5.3	duration of action / onset on philtrum skin (philtrum skin): short duration of action (less than 1 hour) on the philtrum skin or slow onset (more than 5 minutes)
CC(C)[C@@H]1CC[C@@H](C)C[C@H]1C(=O)N[C@@H]1CCOC1=O [D-Hsl]	–	2.5	duration of cooling (FIG. 1) (philtrum skin): 1.3 h
COC(=O)[C@@H](C)N(C)C(=O)[C@@H]1C[C@H](C)CC[C@H]1C(C)C [D-NMe Ala Ester]	–	–	Duration of cooling, Philtrum Skin (philtrum skin): 0 min; Duration of cooling, Eyelids/Ocular Surface (eyelids/ocular surface): 0 min
